Results from US7723289B2, “PIF tetrapeptides” (BioIncept, LLC, priority 2003, dated 2010).

Columns and labels:
[1] = system: PBMC; test: Time-dependent cytokine secretion by PBMC (Table 3); format: cell-based, human; details: substance alone
Description: Detailed time dependent and multiple controls were used the secretion of several cytokines by PBMC (IL-2, IL-5, IL-8, GM-CSF, IL-4, IL-10, TNF-α, IFN-γβ, IL-1 and IL-6) were measured. […] By 4 hours, sPIF-1 blocked TNF alpha with recovery by 24 hours. Also INFgamma secretion initiated only after 48 hours. […] Effects on cytokines was already noted at 0.7 nM. Similar effects were found also with other mitogens LPS and PHA when PIF-1 was tested.

[2] = system: PBMC; test: PIF-1 effects on cytokine expression in patient and control PBMC (Table 7); format: cell-based, human; details: PHA +, PIF-115 −
[3] = system: CD2; test: CD2 expression in PBMC (flow cytometry, CD2MAb-FITC); format: cell-based; details: PBMC exposed 3 days
[4] = system: epithelial cells; test: PIF binding to endometrial epithelial cells (MaBCD2 staining); parameters: species or system human; details: compared to non-relevant IgG
Description: (§1) In addition, to compare the recovery of β-3 integrin expression with PIF effects described after cultured hEEC in a free-fetal bovine serum (FBS) medium some cells were cultured again in FBS-medium. […] PIF binding to epithelial cells was also examined. Binding was examined using MaBCD2 staining.

[5] = system: CD3; test: CD3 expression in PBMC (flow cytometry, MAbCD3-PE); format: cell-based; details: PBMC exposed 3 days, 2-200 nM
Description: Fluorescent PIF peptides bind to immune cell membranes following activation. […] CD69 is expressed during activation of lymphocytes and monocytes, and is a marker of NK cells activation. CD25 is the receptor for IL-2, and a known activation marker as well. […] The expression of CD3 in PBMC was examined following exposure for 3 days to sPIF-1(15) (SEQ ID NO:13) (2-200 nM) using 20 ul MAbCD3-PE (BD).

[6] = system: β-3 integrin; test: β-3 integrin expression by human endometrial epithelial cells (flow cytometry, immunocytochemistry); format: cell-based; details: hEEC, 2-day culture, 1-500 nM
Description: Human endometrial tissues were digested and stromal and epithelial cells (hEEC) isolated and cultured with a fetal bovine serum (FBS)-enriched medium until confluent layers were obtained. After that the cells were cultured for two more days in a FBS free-medium followed by a further 2-day culture in the same medium containing PIF peptides (1-500 nM).
as §1

[7] = system: donor lymphocytes and platelets; format: cell-based, human; details: flow cytometric determination; data not shown
Excerpt: The PIF assay, as disclosed in U.S. Pat. No. 5,646,003 to Barnea et al., entitled “Preimplantation Factor” issued Jul. 9, 1997, and in U.S. Pat. No. 5,981,198 to Barnea et al., entitled “Preimplantation Factor” granted Nov. 9, 1999, the disclosures of which are incorporated herein by reference in their entirety, may be used to measure the response of the immune system to pregnancy specific preimplantation factors. […] Lymphocyte-platelet rosettes result from the interaction of the T cell surface protein CD2 with its ligand CD58 expressed on the platelet membrane. Anti-CD2, by binding to the CD2 antigen on the T cells, inhibits their interaction with platelets.
Human PBMC were isolated by the Ficoll method. FITC-labeled nPIF-115 (SEQ ID NO: 1) and (FITC)-labeled scrPIF-1 (SEQ ID NO:5) and match-size irrelevant peptide (FITC)-labeled negative controls negPIF-1(15) (SEQ ID NO:11), were dissolved in PBS at concentrations ranging from 0.75 to 48.19 μM, and were incubated with 500,000 lymphocytes for 1 h at room temperature. The cells were washed 6 times with PBS and resuspended in 500 μl of the same buffer. T-cells and monocytes identification was performed in independent experiments by incubation with anti-CD3 and anti-CD14 antibody-phycoerithryn (PE) labeled. nPIF-115 (SEQ ID NO: 1) binding to PBMC was determined by flow cytometry. In addition, rosettes formed by T cell-platelets were detected by flow cytometry using anti-CD3 antibody-PE and anti-CD41a antibody-FITC (all antibodies were from Pharmingen Inc.).

[8] = system: PBMC; test: PIF and analogues on release of cytokines +/- platebound mAbCD3 (Table 4); format: cell-based; parameters: IL-1β / TNFa / IL-4 / IL-5 / IL-6 / IL-10 / GM-CSM / IFN-g: unit not given here

## phytohemmaglutinin [PHA, reference compound]
[1]; 4 h post induction
  GM-CSF: 60.4 pg/mL
  IFN-y: 0 pg/mL
  IL-1β: 891.2 pg/mL
  IL-2: 28.7 pg/mL
  IL-4: 0 pg/mL
  IL-5: 0 pg/mL
  IL-6: 7045.0 pg/mL
  IL-8: 0 pg/mL
  IL-10: 13.3 pg/mL
  TNF-α: 18829.1 pg/mL
[1]; 24 h post induction
  GM-CSF: 60.0 pg/mL
  IFN-y: 1728.8 pg/mL
  IL-1β: 5010.5 pg/mL
  IL-2: 2800.6 pg/mL
  IL-4: 60.0 pg/mL
  IL-5: 125.0 pg/mL
  IL-6: >5200 pg/mL
  IL-8: >6330 pg/mL
  IL-10: 1411.5 pg/mL
  TNF-α: >11390 pg/mL
[1]; 48 h post induction
  GM-CSF: 0 pg/mL
  IFN-y: 0 pg/mL
  IL-1β: 0 pg/mL
  IL-2: 0 pg/mL
  IL-4: 0 pg/mL
  IL-5: 0 pg/mL
  IL-6: 0 pg/mL
  IL-8: 5634.0 pg/mL
  IL-10: 0 pg/mL
  TNF-α: 0 pg/mL
[1]; 96 h post induction
  GM-CSF: 0 pg/mL
  IFN-y: 0 pg/mL
  IL-1β: 0 pg/mL
  IL-2: 0 pg/mL
  IL-4: 0 pg/mL
  IL-5: 0 pg/mL
  IL-6: 0 pg/mL
  IL-8: >6330 pg/mL
  IL-10: 0 pg/mL
  TNF-α: 0 pg/mL
[2]; control
  IL-10: 25.72 % of total PBMC in scatter gate
  TH1/TH2: 0.68
  TNFα: 17.43 % of total PBMC in scatter gate
[2]; patient
  IL-10: 24.76 % of total PBMC in scatter gate
  TH1/TH2: 0.57
  TNFα: 14.23 % of total PBMC in scatter gate

## SQAVQEHASTNMG [sPIF-2(13)]
[3]
  increase in CD2 expression: 125-160%
[4]
  binding to epithelial cells: mild
[5]
  increase in CD3 receptor expression: 180-230%
[6]
  increase in the expression of β-3-epithelial integrin: up to a four-fold increase

## MVRIKPGSA [sPIF-1(9)]
[4]
  binding to epithelial cells: highest binding
[7]
  increase in the number of rosettes in the presence of the anti-CD2 antibody: four-fold increase
[6]
  increase in the expression of β-3-epithelial integrin: up to a four-fold increase
[8]; C- (platebound mAbCD3), /1
  GM-CSM: 14.3
  IFN-g: 86.5
  IL-1β: 4.8
  IL-2: 26.4
  IL-4: 0
  IL-5: 0
  IL-6: 177.6
  IL-8: >5000
  IL-10: 49.0
  TNFa: 60.1
[8]; C- (platebound mAbCD3), /50
  GM-CSM: 25.3
  IFN-g: 132.1
  IL-1β: 7.8
  IL-2: 33.7
  IL-4: 18.16
  IL-5: 0
  IL-6: 249.4
  IL-8: >5000
  IL-10: 105.0
  TNFa: 160.8
[8]; U- (no mAbCD3), /1
  GM-CSM: 0
  IFN-g: 0
  IL-1β: 0
  IL-2: 0
  IL-4: 0
  IL-5: 0
  IL-6: 40.8
  IL-8: 772.46
  IL-10: 0
  TNFa: 0
[8]; U- (no mAbCD3), /50
  GM-CSM: 0
  IFN-g: 0
  IL-1β: 0
  IL-2: 13.1
  IL-4: 0
  IL-5: 0
  IL-6: 38.7
  IL-8: 1480.2
  IL-10: 0
  TNFa: 0
[8]; non-stimulated PBMC
  effect on IL6 and 8: stimulatory effect

## MVRIK [sPIF-1(5)]
[8]; C- (platebound mAbCD3), /1
  GM-CSM: 26.8
  IFN-g: 98.2
  IL-1β: 10.7
  IL-2: 19.2
  IL-4: 16.93
  IL-5: 0
  IL-6: 221.8
  IL-8: >5000
  IL-10: 68.5
  TNFa: 142.8
[8]; C- (platebound mAbCD3), /50
  GM-CSM: 20.7
  IFN-g: 81.2
  IL-1β: 5.3
  IL-2: 20.0
  IL-4: 0
  IL-5: 0
  IL-6: 178.9
  IL-8: >5000
  IL-10: 57.2
  TNFa: 81.1
[8]; U- (no mAbCD3), /1
  GM-CSM: 0
  IFN-g: 0
  IL-1β: 0
  IL-2: 0
  IL-4: 0
  IL-5: 0
  IL-6: 28.9
  IL-8: 763.6
  IL-10: 0
  TNFa: 0
[8]; U- (no mAbCD3), /50
  GM-CSM: 0
  IFN-g: 0
  IL-1β: 0
  IL-2: 0
  IL-4: 0
  IL-5: 0
  IL-6: 37.6
  IL-8: 786.4
  IL-10: 0
  TNFa: 0
[8]; following exposure to CD3Mab, dose dependent
  effect on cytokine secretion: mild
